Reference: publication PMC10386886, “First-in-class multifunctional TYMS nonclassical antifolate inhibitor with potent in vivo activity that prolongs survival” (JCI Insight, 2023)
Where two headings read alike, the source gives them in different places.

Key:
DHFR = target: T1, DHFR (Homo sapiens, UniProt P00374); test: Absorbance-based DHFR activity assay; assay type: biochemical
T1 construct: purchased Sigma D6566 (kit CS0340)
T1 sequence (P00374 1-187): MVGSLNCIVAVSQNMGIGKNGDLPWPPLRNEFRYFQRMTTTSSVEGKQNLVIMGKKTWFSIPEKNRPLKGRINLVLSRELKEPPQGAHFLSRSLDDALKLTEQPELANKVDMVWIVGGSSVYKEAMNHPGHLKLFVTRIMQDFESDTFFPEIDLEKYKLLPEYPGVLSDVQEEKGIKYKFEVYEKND
Protocol: DHFR assay kit (Sigma Aldrich, Cat # CS0340) as described by the manufacturer. 0.1-unit DHFR
analogues or control drugs, 6 μL NADPH Cat # N6505 solution and 5 μl of dihydrofolic acid (DHFR
substrate) (Sigma, Cat # D7006). The reaction was then read on the spectrophotometer at 340 nm at
22 °C every 15 seconds for 2.5 minutes.

purified human TYMS [1] = target: T2, purified human TYMS (Homo sapiens, UniProt P04818); test: Tritium-based TYMS catalytic activity assay; assay type: biochemical; details: for TS activity (conversion of dUMP) in the presence of drug: drug 250 μM, 10 μg/mL TS protein, Figure 1B; for TS activity, comparison at decreasing drug concentrations: Figure 6C
T2 construct: 6xHis (N); made in house; host or cells: E. coli BL21 (DE3), vector pQE80L-hTYMS
Protocol: To determine the inhibition of TYMS activity, we utilized a tritium-based TYMS catalytic assay (Figure 1A) to quantify the conversion of dUMP, which is proportional to TYMS activity ([33]). The assay was based on a previously published protocol ([33]) and modified to determine the amount of purified human TYMS (hTYMS) to be used in the conversion of dUMP to dTMP. […]
Tritium based TYMS catalytic activity assay
The catalytic activity of TYMS was determined by measuring the release of [3H] from [5-3H]dUMP (ViTrax, Cat # VT122) resulting from the conversion of dUMP to dTMP as previously described (2, 3).
The reaction conditions were optimized to determine the amount of TYMS protein needed to establish […]
reactions performed without TYMS or without the 5,10-methylene tetrahydrofolate (5,10-mTHF) cofactor (Supplemental Figure 2 and Supplemental methods). Reactions were performed in 50 mM KH2PO4 (Sigma Aldrich, Cat # P0662) at pH 7.2 using 2 µg of purified human TYMS. Reactions were performed in a final volume of 200 µL with 100 mM β-mercaptoethanol (Sigma Aldrich, Cat # M7522), 40 µM dUMP (Sigma Aldrich, Cat # D3876), 100 µM 5,10-mTHF, and the [5-3H]dUMP tracer (ViTrax, Cat # VT122) accounting for 0.06% of the final dUMP concentration in the reaction. The 5,10-mTHF used in the reaction was separately generated from tetrahydrofolic acid (Sigma Aldrich, Cat # T3125) by dissolving the solid in 10 mM KH2PO4 with 143 mM β-mercaptoethanol (1:100 from 14.3 M pure liquid), and 6.35 mM formaldehyde (Sigma Aldrich, Cat # 47608) to yield a 100 mM stock solution of 5,10- mTHF. Reactions were initiated by the addition of the dUMP substrate and 5,10-mTHF cofactor, then incubated at 37 °C for 30 minutes. […]
before the reaction was initiated by the addition of the dUMP substrate and 5,10-mTHF cofactor.
Reactions were terminated by the addition of 100 µL of ice-cold 20% trichloroacetic acid (Sigma Aldrich, Cat # T6399), then excess [5-3H]dUMP was removed by the addition of 200 µL of an albumin-coated activated charcoal solution. The albumin-coated activated charcoal solution was prepared by mixing 10 g of acid- washed activated dextran coated charcoal (Sigma Aldrich, Cat # C6241) with 2.5 g of bovine albumin (Sigma Aldrich, Cat # A1933) in 100 mL of H2O. The suspension was incubated at room temperature for 30 minutes and then centrifuged for 30 minutes at 10,000 x g. Then 150 µL of the supernatant was collected and added to 5 mL of ultima gold liquid scintillation cocktail (Perkin Elmer, Cat # 6013326, lot: 77-19085), and scintillation measurements were perform using a liquid scintillation counter (Beckman Coulter LS6500) to determine [3H]H2O levels in each sample. For all experiments, positive control reactions were performed with no drug representing 100% TYMS activity, and negative

purified human TYMS [2] = target: T2, purified human TYMS; test: Competitive drug displacement assay (tritium TYMS assay); assay type: biochemical; details: for dUMP conversion with increasing 5,10-mTHF concentration / dUMP conversion with increasing dUMP concentration: TS preincubated with drug, Figure 7
Protocol: For these experiments the TYMS protein was first incubated with each drug, and the reaction was then initiated by addition of 5,10-mTHF and dUMP using different concentrations of either 5,10-mTHF or dUMP to change the substrate/drug ratio. If there was competition between one of the substrates and the drug for the same binding site, then increasing the substrate concentration would displace more of the prebound drug and shift the equilibrium toward the enzyme/substrate complex, thus allowing the conversion of dUMP to proceed (Figure 7A). […]
all components including 2 µg TYMS protein to show the range of the assay, the background signal, and the dependence on 5,10-mTHF (Supplemental Figure 2C). To determine the signal from the [5-3H]dUMP tracer used in each reaction the same amount of the dUMP substrate with the [5-3H]dUMP tracer accounting for 0.06% of the final dUMP concentration was added directly to 5 mL of ultima gold liquid scintillation cocktail (Supplemental Figure 2C).
All reactions were performed in biological duplicate and technical duplicate. Results were analyzed using GraphPad Prism 9.
Competitive drug displacement assay
The tritium based TYMS catalytic activity assay was modified to determine if TYMS inhibition from 19-S, 19-S5, and 19-S7 was the result of competitive binding with either the dUMP substrate or the 5,10-mTHF cofactor. The competitive drug displacement assay utilized the standard reaction conditions for the tritium-based TYMS catalytic activity assay including 40 µM dUMP (Sigma Aldrich, Cat # D3876) with the [5- 3H]dUMP tracer (ViTrax, VT122) accounting for 0.06% of the final dUMP concentration and 100 µM 5,10- methylene tetrahydrofolate (defined as 1x dUMP and 1x 5,10-mTHF). Concentrations of total dUMP and 5,10- mTHF were then changed relative to these 1x concentrations to concisely indicate the changes in either the substrate or cofactor concentration. The highest 5x concentration of 5,10 - […]
5x concentration of total dUMP was not limited by solubility, although increases were performed in the same increments as 5,10-mTHF for comparison and 0.06% of the [5-3H]dUMP tracer was maintained at all concentrations. The remaining components in each 200 µL reaction were consistent in all reactions and included 2 µg of purified human TYMS in 50 mM KH2PO4 (Sigma Aldrich, Cat # P0662) and 100 mM β- mercaptoethanol (Sigma Aldrich, Cat # M7522). Control antifolate inhibitor PEM (Sigma Aldrich, Cat # PHR1596) was performed for reference of a TYMS specific classical antifolate and to […]
Human TYMS and DHFR preparation
Human Thymidylate Synthase (hTYMS) and human Dihydrofolate Reductase (hDHFR) were both expressed in BL21 (DE3) E. coli cells, using a standard BL21 transformation protocol, with the expression vector pQE80L-hTYMS (gift from Maria Paola Costi, University of Modena and Reggio Emilio, Italy) and pET100/D- TOPO (Invitrogen, Cat # K10001), respectively. Both vectors contained an N-terminal 6x Histidine tag attached to either hTYMS or hDHFR. After bacterial transformation, cells

MIA PaCa-2 cells = test: MTS viability assay, MIA PaCa-2; assay type: cell-based; details: Homo sapiens, 72-hour drug treatment, Figure 6E, highest concentration 350 μM
Protocol: Cells were harvested after 72 hours, and cell pellets were stored at –80°C. […] After 72 hours, cell viability was assessed by reduction of MTS using Cell Titer 96 R Aqueous One Solution Cell Proliferation Assay Kit (Promega, catalog G8081), following manufacturer’s recommendations. […] was measured on a SpectraMax M3 (Molecular Devices). Data were plotted in GraphPad Prism 9 to determine GI50 concentration. Chemical synthesis details, including characterization of each compound, can be found in the Supplemental section associated with this publication.

T2 sequence (P04818 whole entry): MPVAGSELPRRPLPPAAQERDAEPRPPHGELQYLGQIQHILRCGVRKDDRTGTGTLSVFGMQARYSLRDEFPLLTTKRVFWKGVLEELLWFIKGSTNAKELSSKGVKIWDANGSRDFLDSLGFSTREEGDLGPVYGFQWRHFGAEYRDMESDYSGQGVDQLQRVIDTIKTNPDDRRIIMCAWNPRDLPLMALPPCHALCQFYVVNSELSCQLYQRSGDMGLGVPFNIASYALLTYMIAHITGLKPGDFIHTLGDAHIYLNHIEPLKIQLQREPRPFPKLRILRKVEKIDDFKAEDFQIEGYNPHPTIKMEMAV

Row | dUMP conversion with increasing 5,10-mTHF concentration (purified human TYMS [2]) | Structure (SMILES) | TS activity (conversion of dUMP) in the presence of drug (purified human TYMS [1]) | dUMP conversion with increasing dUMP concentration (purified human TYMS [2]) | TS activity, comparison at decreasing drug concentrations (purified human TYMS [1]) | also measured
1 | – | CCc1nc(N)nc(N)c1-c1ccc(NCCOCCOCCN)c([N+](=O)[O-])c1 [Compound 19-S10] | – | – | – | DHFR activity, screen of 19-S series analogs (DHFR; 1 μM, Figure 6B): exception
2 | – | O=c1[nH]c(=O)n([C@H]2C[C@H](O)[C@@H](CO)O2)cc1F [FdUrd, 5-fluoro-2′-deoxyuridine] | reduced conversion of dUMP | – | – | –
3 | – | O=c1[nH]c(=O)n([C@@H]2O[C@H](CO)[C@@H](O)[C@H]2O)cc1F [FUrd, 5-fluorouridine] | inactive | – | – | –
4 | increased the dUMP conversion | Nc1nc2[nH]cc(CCc3ccc(C(=O)N[C@@H](CCC(=O)O)C(=O)O)cc3)c2c(=O)[nH]1 [PEM, pemetrexed] | – | did not increase dUMP conversion | greater TYMS inhibition than the MTX antifolate | DHFR activity, comparison at reduced drug concentrations (DHFR): less effective against DHFR
5 | increased the amount of dUMP conversion | CCc1nc(N)nc(N)c1-c1ccc(N(C)Cc2ccc(OC)cc2)c([N+](=O)[O-])c1 [Compound 19-S5] | – | the amount of dUMP conversion did not increase | greater TYMS inhibition than both MTX and PEM | Mechanism of TYMS inhibition (purified human TYMS [2]): blocking the folate-binding site; DHFR activity, comparison at reduced drug concentrations (DHFR; Figure 6D): potent TYMS and DHFR inhibition; GI50 (MIA PaCa-2 cells): 280 nM; TS activity, screen of 19-S series analogs (purified human TYMS [1]; 250 μM, Figure 6A): inhibited TYMS activity
